Test results as given in patent EP0199247A2, “Cytostatic active medicine containing glycidyl amines” (priority 1985, dated 1986).

Tested on: Tumorart P 388 (Leukämie)
Assay: P 388 leukemia survival test in mice (NCI protocol 1200)
Assay type: in vivo, Mäusen
Conditions: i.p., 9-day treatment; for Verlängerungsrate T/C: P 388 i.p. 10^6 Zellen/Maus, untreated mean survival 10 days; for Zahl der Tiere aus jeweils einer Gruppe von 6 die 30 Tage überlebten: value in brackets, group of 6
Text: Die nachfolgenden Versuche wurden durchgeführt nach Tcstvorschriften des National Canccr Institute Bethesda, Maryland 200014, veröffentlicht in "Cancer Chemotherany Renorts" Part. 3, Sept. 1972, Vol. 3, Nr. 2. Als Wirksubstanz wurde Triglycidylamin sowie 3-Chlorpropyl-diglycidylamin des vorstehenden Beisniels 4 verwendet. Die Substanz wurde als wäßrige 1 %ige Injektionslösung unmittelbar vor der Applikation frisch hergestellt.
Bei Mäusen wurde gemäß Protokoll 1200 (S. 91 c) die Tumorart P 388 (Leukämie) i.p. mit 10^6 Zellen/Maus gesetzt. Die unbehandelten Tiere hatten eine mittlere Überlebensdauer von 10 Tagen.
Mit den behandelten Testtieren, die einer 9-tägigen i.p. Behandlung mit der in Tabelle 1 angesehenen Dosis unterworfen wurden, wurde eine signifikante Verlängerung der Lebensdauer gegenüber der mittleren Überlebensdauer der nicht mit dem Wirkstoff behandelten Tiere erzielt. Die Verlängerunzstate T/C in Abhängigkeit von der Dosierung des Wirkstoffes ist in der Tabelle 1 zusammengestellt. Die Werte in Klammern bedeuten die Zahl der Tiere aus jeweils einer Gruppe von 6 die 30 Tage üherlebten.

Row | Structure (SMILES) | Verlängerungsrate T/C (Dosis 1,87 mg/kg) [%] | Verlängerungsrate T/C (Dosis 3,75 mg/kg) [%] | Verlängerungsrate T/C (Dosis 7,50 mg/kg) [%] | Zahl der Tiere aus jeweils einer Gruppe von 6 die 30 Tage überlebten (Dosis 7,50 mg/kg) | Verlängerungsrate T/C (Dosis 0,48 mg/kg) [%] | Verlängerungsrate T/C (Dosis 0,97 mg/kg) [%] | Zahl der Tiere aus jeweils einer Gruppe von 6 die 30 Tage überlebten (Dosis 3,75 mg/kg)
1 | ClCCCN(CC1CO1)CC1CO1 (stereo not drawn) [3-Chlorpropyl-diglycidylamin] | 179 | 181 | 303 | 3 |  |  | 
2 | C1OC1CN(CC1CO1)CC1CO1 (stereo not drawn) [Triglycidylamin] | 252 | 303 |  |  | 148 | 174 | 6
